Laboratory results taken from patent publication US12083159B2, “Antibacterial compositions, methods of making and use thereof” (MOREHOUSE SCHOOL OF MEDICINE, priority 2011, dated 2024).
Where no end group is shown, it is not given here.

How the values were obtained:
Jurkat = assay type: cell-based; details: Jurkat cultures, 12 days
Procedure: Jurkat cultures seeded at low density were grown in the presence of the SMRwt or the SMRmut peptide. A small but consistent aliquot was taken from each culture daily over a period of 12 days. The cells in the aliquot were counted and the cells/ml in the culture calculated to determine culture growth. The data are shown with time on the x-axis and cell number on the y-axis.
Neither peptide cause cell death (data not shown). Using immunoprecipitation with the SMRwt peptide as bait to screen for cellular factors interacting with the SMR domain, a cellular protein Mortalin was co-immunoprecipitated with the SMRwt peptide (FIG. 3). Mortalin, also known as Glucose-regulated protein 75 (GRP75) and Peptide-binding protein 74, is a 679 amino acid long, uninducible member of the heat shock protein 70 family. It has a high degree of identity with other members of the Hsp70 family, including Escherichia coli DnaK.

[1] = tested on: Staphylococcus aureus SCO1; assay: Biofilm formation, crystal violet assay (microtiter plate); assay type: cell-based; details: FIG. 14
Procedure: (§1) Biofilm Formation and Measurement Procedures by Crystal Violet Assay: (1) incubate bacteria in agar plate; (2) single colony was transferred to fresh medium and incubated for overnight; (3) cultures were diluted 1:50 into fresh medium and (4) was dispensed into 96 well plate and incubated for overnight; (5) detection of bacteria growth ability, the OD at 600 nm was determined by the SpectraMax M5 Microplate Reader (6) washed by 1× PBS; (7) stained with crystal violet; (8) detection of biofilm, the OD at 570 nm was determined by the SpectraMax M5 Microplate Reader.
(§2) SMR(mut)-CPP (tat) peptide was used as a negative control.
(§3) Bacterial strains evaluated for biofilm formation included (1) the Gram-negative Vibrio cholerae C7258 strain (A. J. Silva et al., J. Bact., 190 (22):7335-7345 (November 2008); J. C. Ayala et al., Genomics data 5, pp. 147-150, (2015)); (2) the Gram-negative Escherichia coli 042 strain (Taxonomy ID: 216592, R. R. Chaudhuri et al, PLOS One, 5(1):e8801 (Jan. 20, 2010), and (3) the Gram-positive Staphylococcus aureus SCO1 strain (ATCC 12228, S. Sarkar et al., PLos One, 10(2):e0117613 (2015). The Vibrio cholerae, Escherichia coli and Staphylococcus aureus strains and plasmids are listed in the references cited in Table 2.
(§4) The Vibrio cholerae, Escherichia coli and Staphylococcus aureus strains were treated with SMRwt-CPP and SMRmut-CPP peptides and screened for inhibition of their biofilm-forming capacity using microtiter plate (MtP) methods (FIGS. 12-14 (crystal violet assays)) and confocal microscopy (FIGS. 15-16 (intensity count on confocal images).

Vibrio cholerae C7258 = assay: as above; assay type: cell-based; details: FIG. 12
Procedure: as §1, §2, §3, §4

Escherichia coli 042 = assay: as above; assay type: cell-based; details: FIG. 13
Procedure: as §1, §2, §3, §4

V. cholerae C7258 = assay: Biofilm formation, SYTO9 confocal microscopy, ImageJ; assay type: cell-based, Vibrio cholerae; details: 24 h static, 18, 36, 72 nM, FIG. 16
Procedure: (§5) Strain V. cholerae C7258 was grown in LB medium at 30° C. to stationary phase. The cultures were diluted 100 fords in fresh medium and biofilm allowed to develop under static conditions for 24 h in Mat Tek glass bottom culture plates. Biofilm formation was stained with SYTO9 and observed by Leico confocal microscopy and three-dimensional (3D) views of V. cholerae and measured using the ImageJ. (A) Confocal images, (B) 3D images, and (C) bar graphs showing the inhibit effect of biofilm formation. Error bars represent the mean±SD of two independent experiments. Asterisks (*) indicate significant differences (p≤0.05) relative to negative control *p<0.01 vs 18 nM, 36 nM and 72 nM SMRwt-CPP peptide treatment. Each value represents the mean of three independent experiments. Error bars denote the standard deviation (STDEV).
as §4

[2] = tested on: Staphylococcus aureus SCO1; assay: as above; assay type: cell-based; details: 24 h static, 18, 36, 72 nM, FIG. 15
Procedure: as §5, with “SCO1” for “V. cholerae C7258”, “37°” for “30°”, “S. aureus” for “V. cholerae”, “(18 nM), **p<0.001 (36” for “vs 18”, “nM,” for “nM, 36 nM and”, “nM) in SMR-CPP” for “nM SMRwt-CPP”
as §4

| Sequence | effect on eukaryotic cell growth (Jurkat) | inhibition of biofilm formation [1] | inhibition of biofilm formation (Vibrio cholerae C7258) | inhibition of biofilm formation (Escherichia coli 042) | inhibition of biofilm formation (V. cholerae C7258) | inhibition of biofilm formation [2] |
| --- | --- | --- | --- | --- | --- | --- |
| AGFPVAAAGFPVDYKDDDDK [SMRmut, reference compound] | no effect on eukaryotic cell growth | – | – | – | – | – |
| AGFPVAAAGFPVGRKKRRQRRRPPQ [SMRmut-CPP, reference compound] | – | no significant effect | no significant effect | no significant effect | – | – |
| VGFPVAAVGFPVDYKDDDDK [SMRwt] | no effect on eukaryotic cell growth | – | – | – | – | – |
| VGFPVAAVGFPVGRKKRRQRRRPPQ [SMRwt-CPP] | – | dose-response inhibition of biofilm formation | dose-response inhibition of biofilm formation | dose-response inhibition of biofilm formation | dose-response inhibition of biofilm formation | dose-response inhibition of biofilm formation |
